{"source": "patent US4590207A", "about": "“Therapeutic and/or preventive ophthalmic solution for intraocular hypertension and glaucoma” (Eisai Co., Ltd., priority 1984, dated 1986)", "key": {"ddy mice": {"system": "ddy mice", "assay": "Acute toxicity (intravenous), mortality 24 hours after administration", "format": "in vivo", "details": "for mortality: 24 hours", "procedure": "500 mg/kg and 1,000 mg/kg of each of isosorbide-5-mononitrate (5-ISMN) and isosorbide-2-mononitrate (2-ISMN) were intravenously injected to ddy mice of approximately 20 g in body weight to observe their toxicity. The mortality was determined 24 hours after the administration."}, "[1]": {"system": "intraocular hypertension of rabbits caused by α-chymotrypsin", "assay": "Effect on intraocular hypertension of rabbits caused by α-chymotrypsin (intraocular tension)", "format": "in vivo, male white rabbits", "design": "Intraocular tension: unit not given here", "details": "for Intraocular tension: 35 μl instilled, mean of five animals ± standard error; for effects of lowering intraocular tension (conclusion): ophthalmic solution containing 5-ISMN or 2-ISMN", "procedure": "Models of intraocular hypertension were prepared by the use of male white rabbits of approximately 2.5 kg in body weight according to the method reported by Sears (cf. Sears, D. and Sears, M., Am. J. Ophthalmol., Vol. 77, No. 3, p. 378 to 383, 1974). A rabbit was anesthetized by intravenously injecting 20 mg/kg of pentobarbital sodium and 2% of lidocaine was instilled in the left eye of the animal to anesthetize locally. A volume of 0.5 ml physiological saline solution was injected into the anterior chamber of the left eye with a needle and subsequently 0.5 ml of α-chymotrypsin 300 NFU/ml was injected into the posterior chamber with another needle while holding the former needle as such. After removing the needle inserted into the posterior chamber, the needle inserted into the anterior chamber was removed. The rabbit experimentally suffering from intraocular hypertension thus prepared was allowed to stand for 25 to 30 days to thereby recover from postoperative keratitis or conjunctivitis and to hold a stable intraocular hypertension. Then it was subjected to the test.\nIntraocular tension was determined with a Perkin's Hand Applanation Tonometer (a product of Clement Clark, London) under anesthesia with 2% halothane, having 2 l/min of oxygen, and local anesthesia with 0.4% of benoxil.\nIntraocular tension was measured five times and the mean value was recorded.\n5-ISMN and 2-ISMN were employed as the test compounds and dissolved in a physiological saline solution.\nA volume of 35 μl of each solution was instilled in the left eye treated with α-chymotrypsin. Each solution was administered to five rabbits according to a crossover design."}, "Solubility in water": {"assay": "Solubility in water", "format": "physicochemical"}, "[2]": {"details": "500 mg/kg intravenous, ten animals"}}, "data": [{"compound": "O=[N+]([O-])OC1COC2C(O)COC12", "note": "(stereo not drawn) [2-ISMN, isosorbide-2-mononitrate]", "values": [{"measurement": "symptoms observed", "setting": "ddy mice; 500 mg/kg and 1,000 mg/kg groups, intravenous", "result": "Slight ataxia"}, {"measurement": "mortality", "setting": "ddy mice; [2]", "result": "No animal died of the ten animals"}, {"measurement": "mortality", "setting": "ddy mice; 1,000 mg/kg intravenous", "result": "No animal died of the ten animals"}, {"measurement": "Intraocular tension", "setting": "[1]; 0 hr, 3.0% solution", "result": "31.2 ± 0.6"}, {"measurement": "Intraocular tension", "setting": "[1]; 1 hr, 3.0% solution", "result": "29.0 ± 0.8"}, {"measurement": "Intraocular tension", "setting": "[1]; 3 hr, 3.0% solution", "result": "29.1 ± 0.9"}, {"measurement": "Intraocular tension", "setting": "[1]; 5 hr, 3.0% solution", "result": "25.1 ± 1.4"}, {"measurement": "Intraocular tension", "setting": "[1]; 7 hr, 3.0% solution", "result": "24.6 ± 1.4"}, {"measurement": "Intraocular tension", "setting": "[1]; 9 hr, 3.0% solution", "result": "21.8 ± 1.3"}, {"measurement": "effect of lowering intraocular tension", "setting": "[1]; dose of 3%", "result": "exhibits an effect of lowering intraocular tension"}, {"measurement": "effects of lowering intraocular tension (conclusion)", "setting": "[1]", "result": "remarkable, continuous effects of lowering intraocular tension"}, {"measurement": "solubility in water", "setting": "Solubility in water", "result": "highly soluble in water"}]}, {"compound": "O=[N+]([O-])OC1COC2C(O)COC12", "note": "(stereo not drawn) [5-ISMN, isosorbide-5-mononitrate]", "values": [{"measurement": "symptoms observed", "setting": "ddy mice; 500 mg/kg intravenous", "result": "Slight ataxia and restlessness"}, {"measurement": "time to disappearance of symptoms (ataxia and restlessness)", "setting": "ddy mice; 500 mg/kg intravenous", "result": "≤ 30", "unit": "min"}, {"measurement": "mortality", "setting": "ddy mice; [2]", "result": "No animal died of the ten animals"}, {"measurement": "mortality", "setting": "ddy mice; 1,000 mg/kg intravenous", "result": "no animal died"}, {"measurement": "Intraocular tension", "setting": "[1]; 0 hr, 0.3% solution", "result": "30.5 ± 0.8"}, {"measurement": "Intraocular tension", "setting": "[1]; 0 hr, 1.0% solution", "result": "30.2 ± 0.5"}, {"measurement": "Intraocular tension", "setting": "[1]; 0 hr, 3.0% solution", "result": "30.8 ± 0.8"}, {"measurement": "Intraocular tension", "setting": "[1]; 1 hr, 0.3% solution", "result": "21.5 ± 0.5"}, {"measurement": "Intraocular tension", "setting": "[1]; 1 hr, 1.0% solution", "result": "22.0 ± 1.9"}, {"measurement": "Intraocular tension", "setting": "[1]; 1 hr, 3.0% solution", "result": "20.3 ± 0.9"}, {"measurement": "Intraocular tension", "setting": "[1]; 3 hr, 0.3% solution", "result": "20.1 ± 0.9"}, {"measurement": "Intraocular tension", "setting": "[1]; 3 hr, 1.0% solution", "result": "19.1 ± 0.6"}, {"measurement": "Intraocular tension", "setting": "[1]; 3 hr, 3.0% solution", "result": "16.4 ± 0.5"}, {"measurement": "Intraocular tension", "setting": "[1]; 5 hr, 0.3% solution", "result": "19.8 ± 1.2"}, {"measurement": "Intraocular tension", "setting": "[1]; 5 hr, 1.0% solution", "result": "18.6 ± 0.9"}, {"measurement": "Intraocular tension", "setting": "[1]; 5 hr, 3.0% solution", "result": "15.7 ± 0.5"}, {"measurement": "Intraocular tension", "setting": "[1]; 7 hr, 0.3% solution", "result": "20.5 ± 0.7"}, {"measurement": "Intraocular tension", "setting": "[1]; 7 hr, 1.0% solution", "result": "18.5 ± 1.0"}, {"measurement": "Intraocular tension", "setting": "[1]; 7 hr, 3.0% solution", "result": "16.2 ± 1.8"}, {"measurement": "Intraocular tension", "setting": "[1]; 9 hr, 0.3% solution", "result": "19.6 ± 1.8"}, {"measurement": "Intraocular tension", "setting": "[1]; 9 hr, 1.0% solution", "result": "19.8 ± 1.3"}, {"measurement": "Intraocular tension", "setting": "[1]; 9 hr, 3.0% solution", "result": "16.2 ± 2.2"}, {"measurement": "dose dependence of effect of lowering intraocular tension", "setting": "[1]; dose of 0.3 to 3%", "result": "would depend on the dose"}, {"measurement": "duration of effect of lowering intraocular tension", "setting": "[1]; dose of 0.3 to 3%", "result": "at least nine"}, {"measurement": "effect of lowering intraocular tension", "setting": "[1]; dose of 0.3 to 3%", "result": "remarkable effect of lowering intraocular tension"}, {"measurement": "effects of lowering intraocular tension (conclusion)", "setting": "[1]", "result": "remarkable, continuous effects of lowering intraocular tension"}, {"measurement": "solubility in water", "setting": "Solubility in water", "result": "highly soluble in water"}]}]}
